Experimental data as given in patent US9586943B2, “Bilaterally-substituted tricyclic compounds for the treatment of human immunodeficiency virus type-1 (HIV-1) infection and other diseases” (CENTRO DE INVESTIGACIÓN PRINCIPE FELIPE, priority 2013, dated 2017).
Read-outs that look alike come from different tables or passages of the source. Numbered stars: 1 amine (or outer) side, 2 acyl side, 3 side chain; on linkers, the order of the positions; unused ones are H or OH. Suc = O=C(CCC(=O)[*:2])[*:1]

How the values were obtained:
[1] = target: RRE-Rev34-50 interaction (RRE hairpin and frevp); experiment: Fluorescence polarization displacement assay of the RRE-Rev34-50 interaction; type: binding, HIV-1
[2] = target: RRE RNA hairpin (internal loop IIB); experiment: SPR analysis of interaction with RRE RNA hairpin; type: binding, HIV-1
[3] = target: TARc hairpin; experiment: SPR binding specificity relative to control TARc hairpin; set-up: species or system HIV-1
Procedure: (§1) The interaction of these biphenyl and terphenyl compounds with the RRE RNA hairpin (SEQ. ID. No 1) was analysed using surface plasmon resonance (SPR) experiments(19). In addition to the RRE, two control RREc (SEQ. ID. No 2) and TARc (SEQ. ID. No 3) hairpins were also immobilised on the chips. In the RREc hairpin the internal loop forming the Rev high-affinity binding site is replaced with a G:G opposition, whereas in the TARc hairpin this loop is substituted with the HIV-1 Tat-binding UCU bulge(20). In this way, applicants could simultaneously assess the interaction of each ligand with RRE, RREc and TARc, obtaining important information about binding selectivity. In addition, the SPR methodology allows deduction of binding stoichiometries, which are likewise related to the specificity of the interaction between a ligand and a given RNA species. These are key considerations in the nucleic acid recognition field(4, 5, 14).
(§2) The Surface Plasmon Resonance (SPR) experiments were carried out at 25° C. with a Biacore T100 optical biosensor system, 4-channel streptavidin-derivatized Series S SA chips, and either 10 mM MES (pH 6.25), 150 mM NaCl, 1 mM EDTA and 0.005% P20 or 10 mM HEPES pH 7.4, 150 mM NaCl, 3 mM EDTA and 0.005% P20 aqueous solutions as mobile phases. After immobilizing approximately 300 response units (RU) of the RRE, RREc and TARc RNA hairpins on the chips, the compounds were injected during 10-minute periods at a flow rate of 20 μL/min and at concentrations generally ranging from 0.01 μM to 100.0 μM, and then allowed to dissociate for 10 more minutes. The RNA surfaces were regenerated with solutions containing 0.5 to 1 M NaCl and 10 to 100 mM NaOH, depending on the ligand.
(§3) RNA-ligand SPR equilibrium dissociation constants (Kd) were determined by fitting the sensorgrams to one-site or two-site equations:
[formula] [formula] where RU is the response in the steady-state region of the sensorgrams, C is the concentration of free compound in equilibrium with the complex, RUmax is the maximum response and RI is an offset term accounting for the bulk refractive index contribution of the sample. In these models, Kd, RUmax and RI are adjustable parameters, and the stoichiometry of each binding site was determined by comparing the fitted RUmax values with the predicted ones, calculated from the molecular weights of RNA and compound and the amount of RNA in the flow cell(32). The two-site equation was only utilized if it provided a clear curve-fitting improvement over the one-site model. […] All SPR experiments were double-referenced(33).

[4] = test system: HIV-1 (NL4.3-Ren); experiment: microbe, parasite or virus in culture; type: cell-based; details: for EC50: Human immunodeficiency virus 1, 48 h, read-out: EC50 (NL4.3-Ren)
[5] = Cellular viability (CellTiter Glo); type: cell-based; details: human, MT-2 cells; 48 h, CellTiter Glo; read-out: CC50 (celular viability)
[6] = test system: RRE hairpin; experiment: Two-dimensional NMR (TOCSY) titration of the RRE hairpin; type: binding, HIV-1; details: D2O, pH 6.0
[7] = target: RREc hairpin; experiment: SPR binding specificity relative to control RREc hairpin; set-up: species or system HIV-1
Procedure: as §1, §2, §3
[formula] [formula] where RU is the response in the steady-state region of the sensorgrams, C is the concentration of free compound in equilibrium with the complex, RUmax is the maximum response and RI is an offset term accounting for the bulk refractive index contribution of the sample. In these models, Kd, RUmax and RI are adjustable parameters, and the stoichiometry of each binding site was determined by comparing the fitted RUmax values with the predicted ones, calculated from the molecular weights of RNA and compound and the amount of RNA in the flow cell(32). The two-site equation was only utilized if it provided a clear curve-fitting improvement over the one-site model. The specificity of the RRE interaction was quantified by calculating the Kd(RREc)/Kd(RRE) and […] ratios. All SPR experiments were double-referenced(33).

[8] = test system: Escherichia coli (ATCC 53868); experiment: Disk diffusion assay (Kirby-Bauer), E. coli; type: cell-based; details: disk potency 20 μg, 8 mm discs, 16-18 hours at 37° C.
[9] = test system: Staphilococcus aureus (ATCC 35556); experiment: Disk diffusion assay (Kirby-Bauer), S. aureus; type: cell-based; details: disk potency 20 μg, 8 mm discs, 16-18 hours at 37° C.
[10] = test system: MT-2 cells; experiment: Cellular viability (CellTiter Glo); type: cell-based
[11] = 25° C., pH 6.3, high affinity site when two-site model, JB-399 and IIS-530: ligand range 0.1-25 μM, read-out: Kd(RRE)
[12] = read-out: IC50 (RRE-Rev 50% inhibitory concentration), fluorescence polarization, 25° C., 60 nM RRE and 10 nM frevp
[13] = 25° C., pH 7.4, high affinity site when two-site model, footnote d compounds: ligand range 0.1-25 μM, read-out: Kd(RRE)

Compound	Kd [2, 11] [µM]	Kd(TARc)/Kd(RRE) ([3]; 25° C., pH 6.3)	EC50 [4] [µM]	CC50 at 48 h [5] [µM]	IC50 [1, 12] [µM]	disk susceptibility of E. coli (diameter of the inhibition area) [8]	disk susceptibility of S. aureus (diameter of the inhibition area) [9]	further results
COc1cc(CCN)c(-c2cc(CCN)c(O)c(CCN)c2)c(CCN)c1 [JB-398, 2′,3,5,6′-tetrakis(2-aminoethyl)-4′-methoxy-[1,1′-biphenyl]-4-ol]	31.1 ± 5	3.7	> 100	> 100	–	–	–	IC50 ([1]; fluorescence anisotropy, read-out: IC50 (RRE-Rev34-50 inhibition)): 22.1 µM; RRE interaction by NMR chemical shift perturbation (in words) [6]: weak
succynyl-TRQARRNRRRRWRERQRAAAAR-amide (Suc-TRQARRNRRRRWRERQRAAAAR-NH2; SMILES C[C@H](NC(=O)[C@H](C)NC(=O)[C@H](C)NC(=O)[C@H](CCCNC(=N)N)NC(=O)[C@H](CCC(N)=O)NC(=O)[C@H](CCCNC(=N)N)NC(=O)[C@H](CCC(=O)O)NC(=O)[C@H](CCCNC(=N)N)NC(=O)[C@H](Cc1c[nH]c2ccccc12)NC(=O)[C@H](CCCNC(=N)N)NC(=O)[C@H](CCCNC(=N)N)NC(=O)[C@H](CCCNC(=N)N)NC(=O)[C@H](CCCNC(=N)N)NC(=O)[C@H](CC(N)=O)NC(=O)[C@H](CCCNC(=N)N)NC(=O)[C@H](CCCNC(=N)N)NC(=O)[C@H](C)NC(=O)[C@H](CCC(N)=O)NC(=O)[C@H](CCCNC(=N)N)NC(=O)[C@@H](NC(=O)CCC(=O)O)[C@@H](C)O)C(=O)N[C@@H](C)C(=O)N[C@@H](CCCNC(=N)N)C(N)=O) [revp, reference compound]	–	–	–	–	–	–	–	Ki ([1]; calculated from IC50, read-out: Ki inhibition constant): 0.0041 ± 0.0008 µM; Kd(RREc)/Kd(RRE) [7]: 14.5; Kd ([2]; one-site model, read-out: equilibrium dissociation constant Kd (RRE)): 0.0042 ± 0.0034 µM; Kd(TARc)/Kd(RRE) [3]: 4.4
COc1cc(CCN)c(-c2ccc(-c3cc(CCN)c(OCC4CCCCC4)c(CCN)c3)c(OC)c2)c(CCN)c1 [IIS-530, 2,2′,2″,2′″-(4″-(cyclohexylmethoxy)-3′,4-dimethoxy-[1,1′:4′,1″-terphenyl]-2,3″,5″,6-tetrayl)tetraethanamine]	46.2 ± 32	4.0	> 100	> 100	75.5 ± 39.9	–	–	Kd(RREc)/Kd(RRE) ([7]; 25° C., pH 6.3): 1.3
COc1cc(CCN)c(-c2ccc(-c3cc(CCN)c(OCc4ccc(C(F)(F)F)cc4)c(CCN)c3)c(OC)c2)c(CCN)c1 [IIS-478, 2,2′,2″,2′″-(3′,4-dimethoxy-4″-((4-(trifluoromethyl)benzyl)oxy)-[1,1′:4′,1″-terphenyl]-2,3″,5″,6-tetrayl)tetraethanamine]	–	–	> 100	> 100	232 ± 32.7	inactive	inactive	Kd(RREc)/Kd(RRE) ([7]; 25° C., pH 7.4): 10.3; Kd [2, 13]: 14 ± 5.1 µM; Kd(TARc)/Kd(RRE) ([3]; 25° C., pH 7.4): 9.6
NC[C@H]1O[C@H](O[C@H]2[C@H](O)[C@@H](O[C@H]3O[C@H](CO)[C@@H](O)[C@H](N)[C@H]3O)[C@H](N)C[C@@H]2N)[C@H](N)C[C@@H]1O [Tobramycin, tobramycin]	–	–	–	–	–	18.8 ± 2.2	17.6 ± 0.8	–
CCc1cc(-c2c(CCN)cc(OC)cc2CCN)ccc1-c1cc(CCN)c(O)c(CCN)c1 [IIS-792, 2″,3,5,6″-tetrakis(2-aminoethyl)-2′-ethyl-4″-methoxy-[1,1′:4′,1″-terphenyl]-4-ol]	–	–	46.3	> 100	93.6 ± 24.4	–	–	Kd(RREc)/Kd(RRE) ([7]; 25° C., pH 7.4): 1.2; Kd [2, 13]: 8.1 ± 1.8 µM; Kd(TARc)/Kd(RRE) ([3]; 25° C., pH 7.4): 1.6; inhibition of HIV-1 replication (in words) [4]: inhibited HIV-1 replication; cellular toxicity (in words) [10]: no cellular toxicity
COc1cc(CCN)c(-c2ccc(-c3cc(CCN)c(OCc4ccccc4)c(CCN)c3)c(OC)c2)c(CCN)c1 [IIS-311, 2,2′,2″,2′″-(4″-(benzyloxy)-3′,4-dimethoxy-[1,1′:4′,1″-terphenyl]-2,3″,5″,6-tetrayl)tetraethanamine]	9.4 ± 5.7	3.2	> 100	> 100	162 ± 118	–	–	Kd(RREc)/Kd(RRE) ([7]; 25° C., pH 6.3): 4.9
CC1(C)S[C@@H]2[C@H](NC(=O)[C@H](N)c3ccccc3)C(=O)N2[C@H]1C(=O)O [Ampicillin, ampicillin]	–	–	–	–	–	25.6 ± 1.7	38.1 ± 1.6	–
NC[C@H]1O[C@H](O[C@H]2[C@H](O)[C@@H](O[C@H]3O[C@H](CO)[C@@H](O)[C@H](N)[C@H]3O)[C@H](N)C[C@@H]2N)[C@H](N)[C@@H](O)[C@@H]1O [Kanamycin B, kanamycin B]	–	–	–	–	–	20.0 ± 2.1	16.7 ± 1.2	–
COc1cc(CCN)c(-c2ccc(-c3cc(CCN)c(O)c(CCN)c3)cc2)c(CCN)c1 [JB-399, 2″,3,5,6″-tetrakis(2-aminoethyl)-4″-methoxy-[1,1′:4′,1″-terphenyl]-4-ol]	14.4 ± 6.8	11.7	> 100	> 100	23.4 ± 3.6	–	–	–
NC[C@H]1O[C@H](O[C@H]2[C@H](O)[C@@H](O[C@H]3O[C@H](CO)[C@@H](O)[C@H](N)[C@H]3O)[C@H](N)C[C@@H]2N)[C@H](O)[C@@H](O)[C@@H]1O [Kanamycin A, kanamycin A]	–	–	–	–	–	22.0 ± 2.0	16.5 ± 1.1	–
COc1cc(CCN)c(-c2c(CCN)cc(OC)cc2CCN)c(CCN)c1 [SC-30, 2,2′,2″,2′″-(4,4′-dimethoxy-[1,1′-biphenyl]-2,2′,6,6′-tetrayl)tetraethanamine]	> 100	–	50 to 100	> 100	309 ± 68.9	inactive	inactive	RRE interaction by NMR chemical shift perturbation (in words) [6]: unspecific
